# In patent publication US10385011B2, “Benzoic acid amide compound” (AMOREPACIFIC CORPORATION, priority 2015, dated 2019):
# Tested on: Mouse-derived B16F10 melanoma cells
# Test: Effect of reducing melanin production in melanocytes (Dooley's method)
# Assay type: cell-based
# Conditions: B16-F10, 120 h, medium with compound replaced for three consecutive days, melanin extracted after 5 days, absorbance at 405 nm, read-out: IC50, concentration required to inhibit melanin production in melanocytes to half
# Procedure: The effect of inhibiting melanin production of the benzoic acid amide derivative compounds prepared in Examples in melanocytes was measured according to the Dooley's method. Mouse-derived B16F10 melanoma cells acquired from the Korean Cell Line Bank were used as cell lines. DMEM (Cat No. 11995), FBS (Cat No. 16000-044), and antibiotic-antifungal agents (Cat No. 15240-062) necessary for cell culturing were purchased from Invitrogen (GIBCO). The cell lines were cultured under the condition of 37° C. and 5% CO2. The cultured B16F10 cells were detached using 0.05% trypsin-EDTA and inoculated onto a 48-well plate with the same cell number (1×10^4 cells/well). From the next day, the culture medium was replaced with one containing 10 ppm of each compound of Examples for three consecutive days. […] After 5 days, melanin was melted and extracted from the cells by treating with 1 N NaOH at 60° C. for 2 hours, which was quantitated by measuring absorbance at 405 nm. The concentrations (IC50) of Examples required to inhibit melanin production in melanocytes to half were calculated and are given in the following Table 1.
row,IC50 [nM],SMILES
1,600,"COc1cc(OC)c(-c2ccc(F)c(F)c2)cc1C(=O)NCc1ccc(O)cc1O [Example 9, N-(2,4-dihydroxy-benzyl)-2,4-dimethoxy-5-(3,4-difluoro-phenyl) Benzoic Acid Amide]"
2,900,"COc1cc(OC)c(C2=CCCCC2)cc1C(=O)NCc1ccc(O)cc1O [Example 11, 5-cyclohexene-1-yl-N-(2,4-dihydroxy-benzyl)-2,4-dimethoxy-benzoic Acid Amide]"
3,1300,"COc1cc(OC)c(-c2cccc([N+](=O)[O-])c2)cc1C(=O)NCc1ccc(O)cc1O [Example 10, N-(2,4-dihydroxy-benzyl)-2,4-dimethoxy-5-(3-nitro-phenyl) Benzoic Acid Amide]"
4,2300,"COc1cc(OC)c(C(C)(C)C)cc1C(=O)NCc1ccc(O)cc1O [Example 1, 5-tert-butyl-N-(2,4-dihydroxy-benzyl)-2,4-dimethoxy-benzoic Acid Amide]"
5,700,"COc1ccc(-c2cc(C(=O)NCc3ccc(O)cc3O)c(OC)cc2OC)cc1 [Example 5, N-(2,4-dihydroxy-benzyl)-2,4-dimethoxy-5-(4-methoxy-phenyl) Benzoic Acid Amide]"
6,700,"COc1cc(OC)c(-c2ccc3c(c2)OCO3)cc1C(=O)NCc1ccc(O)cc1O [Example 7, 5-benzo[1,3]dioxol-5-yl-N-(2,4-dihydroxy-benzyl)-2,4-dimethoxy-benzoic Acid Amide]"
7,700,"COc1cc(OC)c(-c2ccc(F)cc2)cc1C(=O)NCc1ccc(O)cc1O [Example 6, N-(2,4-dihydroxy-benzyl)-2,4-dimethoxy-5-(4-fluoro-phenyl)-benzoic Acid Amide]"
8,2100,"COc1cc(OC)c(C2CCCCC2)cc1C(=O)NCc1ccc(O)cc1O [Example 12, 5-cyclohexyl-N-(2,4-dihydroxy-benzyl)-2,4-dimethoxy-benzoic Acid Amide]"
9,800,"CCCCc1ccc(O)cc1O [Rucinol, reference compound]"
10,1500,"COc1cc(OC)c(-c2cc(C)cc(C)c2)cc1C(=O)NCc1ccc(O)cc1O [Example 8, N-(2,4-dihydroxy-benzyl)-2,4-dimethoxy-5-(3,5-dimethyl-phenyl) Benzoic Acid Amide]"
